Measured values: patent publication US11633551B2, “Gaseous nitric oxide delivery system and methods of use” (Hansen Pharmaceutical, LLC, priority 2014, dated 2023)
Where “and” joins values, the source holds several entries; their conditions need not be identical. Identical values can stand only once.

Key:
Type in all cases: cell-based
cells = assay: MTT assay of cell viability after gNO administration; conditions: pressurized gNO at about 0.15 ATM (2.2 psi) for about 105 minutes
Procedure: Additionally, MTT assays were performed to assess cell viability after gNO administration. MTT assays are colorimetric-based assays used to assess cell viability as a function of color variation. As illustrated below in Table 2, cell viability after the administration of pressurized gNO at about 0.15 ATM (2.2 psi) for about 105 minutes varied from about 40%-50%.

S. aureus = assay: Colony counts after pressurized gNO, 24 hours infection, Franz cell (3-Ring) or Leg Device; conditions: 1% gNO after 24 hours of infection
Procedure: Experiments were also conducted to determine the infection-reducing capability of gNO administration at various pressures below 1.0 ATM (14.695 psi) (independent of and in addition to the pressure applied by the external environment) using both a Franz cell tissue culture device (i.e., 3-Ring) and a portable gNO deliver device (i.e., Leg Device). The results of one set of experiments are illustrated below in Table 1. gNO was administered at a 1% concentration after 24 hours of infection with S. aureus. Flow Rates (cm^3/min or cc) varied from about 100 to about 1500, Purge Flow (liters/min or LPM) varied from about 0.1 to about 1.5, and gNO Exposure Time varied between about 45 minutes to about 105 minutes among the different treatment groups and controls. Colony counts (log CFU) were performed at various dilutions, which are represented in the last eight columns labeled 0, 1×10^−1 through 1×10^−7 (“0” indicates no dilution).

[1] = test system: Staphylococcus aureus, subspecies aureus Rosenbach (ATCC #12600); assay: Skin sample infection assay, 3 hours infection, bioburden after gNO; conditions: 1% gNO at 1 ATM (14.695 psi) for 90 minutes, flow rate 0.1 liters/minute; skin samples infected for 3 hours; FIG. 4
Procedure: (§1) FIG. 4 is a graph illustrating the effects of NO treatment on bioburden using an infection assay, after three hours of infection, according to an embodiment of the present disclosure. Skin samples infected for 3 hours with Staphylococcus, MRSA, Acinetobacter or Pseudomonas and subsequently exposed to 1% gNO at 1 ATM (14.695 psi) for 90 minutes at a flow rate of 0.1 liters/minute. Staphylococcus aureus, subspecies aureus Rosenbach (ATCC #12600); Staphylococcus aureus, subspecies aureus Rosenbach (ATCC #33591), methicillin-resistant strain of Staphylococcus aureus, phage type 92; Acinetobacter baumannii (ATCC #BAA-747); and Pseudomonas aeruginosa (ATTC #BAA-47). Control=infected, untreated tissue. Three sets of triplicates were performed per experiment.

[2] = test system: MRSA, methicillin-resistant strain of Staphylococcus aureus (ATCC #33591); assay: as above; conditions: 1% gNO at 1 ATM (14.695 psi) for 90 minutes, flow rate 0.1 liters/minute; skin samples infected for 3 hours; FIG. 4
Procedure: as §1

[3] = test system: Pseudomonas aeruginosa (ATTC #BAA-47); assay: as above; conditions: 1% gNO at 1 ATM (14.695 psi) for 90 minutes, flow rate 0.1 liters/minute; skin samples infected for 3 hours; FIG. 4
Procedure: as §1

[4] = test system: Acinetobacter baumannii (ATCC #BAA-747); assay: as above; conditions: 1% gNO at 1 ATM (14.695 psi) for 90 minutes, flow rate 0.1 liters/minute; skin samples infected for 3 hours; FIG. 4
Procedure: as §1

[5] = Trial 0.15 ATM, 3-Ring, purge flow 0.1 LPM, flow rate 100 cc, 0.15 ATM, 105 min
[6] = Trial 0.25 ATM, 3-Ring, purge flow 0.1 LPM, flow rate 100 cc, 0.25 ATM, 90 min
[7] = Trial 0.5 ATM, 3-Ring, purge flow 0.1 LPM, flow rate 100 cc, 0.5 ATM, 90 min
[8] = Trial 0.5 ATM, Leg Device, purge flow 1.0 LPM, flow rate 500 cc, 0.5 ATM, 45 min
[9] = Trial 9 attempt, 3-Ring, purge flow 0.1 LPM, flow rate 100 cc, 0.25 ATM, 90 min
[10] = Trial Calf, Leg Device, purge flow 0.1 LPM, flow rate 100 cc, 0.5 ATM, 90 min
[11] = Trial Heel, Leg Device, purge flow 0.1 LPM, flow rate 100 cc, 0.5 ATM, 90 min
[12] = Trial Leg 1, Leg Device, purge flow 1.5 LPM, flow rate 1500 cc, 1 ATM, 90 min
[13] = Trial Leg 2, Leg Device, purge flow 1.5 LPM, flow rate 100 cc, 0.5 ATM, 90 min
[14] = Trial Leg purge, Leg Device, purge flow 0.5 LPM, flow rate 100 cc, 0.25 ATM, 90 min
[15] = Trial Toe, Leg Device, purge flow 0.1 LPM, flow rate 100 cc, 0.5 ATM, 90 min
[16] = Trial d Pressure, Leg Device, purge flow 0.1 LPM, flow rate 100 cc, 0.5 ATM, 45 min

[N]=O [gNO, Nitric Oxide]
TNTC: Colony counts, 0 (no dilution) (S. aureus; [9]) | Colony counts, 1 × 10−1 dilution (S. aureus; [9]) | Colony counts, 1 × 10−2 dilution (S. aureus; [9]) | Colony counts, 0 (no dilution) (S. aureus; [16]) | Colony counts, 1 × 10−1 dilution (S. aureus; [16]) | Colony counts, 1 × 10−2 dilution (S. aureus; [16]) | Colony counts, 1 × 10−3 dilution (S. aureus; [16])
0 log CFU: Colony counts, 1 × 10−5 dilution (S. aureus; [5]) | Colony counts, 1 × 10−6 dilution (S. aureus; [5]) | Colony counts, 1 × 10−7 dilution (S. aureus; [5]) | Colony counts, 1 × 10−5 dilution (S. aureus; [6]) | Colony counts, 1 × 10−6 dilution (S. aureus; [6]) | Colony counts, 1 × 10−7 dilution (S. aureus; [6]) | Colony counts, 1 × 10−2 dilution (S. aureus; [7]) | Colony counts, 1 × 10−3 dilution (S. aureus; [7]) | Colony counts, 1 × 10−4 dilution (S. aureus; [7]) | Colony counts, 1 × 10−5 dilution (S. aureus; [7]) | Colony counts, 1 × 10−6 dilution (S. aureus; [7]) | Colony counts, 1 × 10−7 dilution (S. aureus; [7]) | Colony counts, 0 (no dilution) (S. aureus; [8]) | Colony counts, 1 × 10−1 dilution (S. aureus; [8]) | Colony counts, 1 × 10−2 dilution (S. aureus; [8]) | Colony counts, 1 × 10−3 dilution (S. aureus; [8]) | Colony counts, 1 × 10−4 dilution (S. aureus; [8]) | Colony counts, 1 × 10−5 dilution (S. aureus; [8]) | Colony counts, 1 × 10−6 dilution (S. aureus; [8]) | Colony counts, 1 × 10−7 dilution (S. aureus; [8]) | Colony counts, 0 (no dilution) (S. aureus; [10]) | Colony counts, 1 × 10−1 dilution (S. aureus; [10]) | Colony counts, 1 × 10−2 dilution (S. aureus; [10]) | Colony counts, 1 × 10−3 dilution (S. aureus; [10]) | Colony counts, 1 × 10−4 dilution (S. aureus; [10]) | Colony counts, 1 × 10−5 dilution (S. aureus; [10]) | Colony counts, 1 × 10−6 dilution (S. aureus; [10]) | Colony counts, 1 × 10−7 dilution (S. aureus; [10]) | Colony counts, 0 (no dilution) (S. aureus; [11]) | Colony counts, 1 × 10−1 dilution (S. aureus; [11]) | Colony counts, 1 × 10−2 dilution (S. aureus; [11]) | Colony counts, 1 × 10−3 dilution (S. aureus; [11]) | Colony counts, 1 × 10−4 dilution (S. aureus; [11]) | Colony counts, 1 × 10−5 dilution (S. aureus; [11]) | Colony counts, 1 × 10−6 dilution (S. aureus; [11]) | Colony counts, 1 × 10−7 dilution (S. aureus; [11]) | Colony counts, 0 (no dilution) (S. aureus; [12]) | Colony counts, 1 × 10−1 dilution (S. aureus; [12]) | Colony counts, 1 × 10−2 dilution (S. aureus; [12]) | Colony counts, 1 × 10−3 dilution (S. aureus; [12]) | Colony counts, 1 × 10−4 dilution (S. aureus; [12]) | Colony counts, 1 × 10−5 dilution (S. aureus; [12]) | Colony counts, 1 × 10−6 dilution (S. aureus; [12]) | Colony counts, 1 × 10−7 dilution (S. aureus; [12]) | Colony counts, 0 (no dilution) (S. aureus; [13]) | Colony counts, 1 × 10−1 dilution (S. aureus; [13]) | Colony counts, 1 × 10−2 dilution (S. aureus; [13]) | Colony counts, 1 × 10−3 dilution (S. aureus; [13]) | Colony counts, 1 × 10−4 dilution (S. aureus; [13]) | Colony counts, 1 × 10−5 dilution (S. aureus; [13]) | Colony counts, 1 × 10−6 dilution (S. aureus; [13]) | Colony counts, 1 × 10−7 dilution (S. aureus; [13]) | Colony counts, 0 (no dilution) (S. aureus; [14]) | Colony counts, 1 × 10−1 dilution (S. aureus; [14]) | Colony counts, 1 × 10−2 dilution (S. aureus; [14]) | Colony counts, 1 × 10−3 dilution (S. aureus; [14]) | Colony counts, 1 × 10−4 dilution (S. aureus; [14]) | Colony counts, 0 (no dilution) (S. aureus; [15]) | Colony counts, 1 × 10−1 dilution (S. aureus; [15]) | Colony counts, 1 × 10−2 dilution (S. aureus; [15]) | Colony counts, 1 × 10−3 dilution (S. aureus; [15]) | Colony counts, 1 × 10−4 dilution (S. aureus; [15]) | Colony counts, 1 × 10−5 dilution (S. aureus; [15]) | Colony counts, 1 × 10−6 dilution (S. aureus; [15]) | Colony counts, 1 × 10−7 dilution (S. aureus; [15])
5 fold: Reduction of bioburden [1]
nearly completely eradicated: Reduction of bioburden [2] | Reduction of bioburden [3] | Reduction of bioburden [4]
44.7% and 44.2% and 39.9%: % Viability (cells; control = 100)
total kill: Reduction of bioburden (summary of Table 1) (S. aureus; pressures as low as about 0.15 ATM (2.2 psi), exposure times of about 105 minutes)
40%-50%: Cell viability (cells; summary of Table 2)
